This note sets out measurements from US4681882A, “4-alkoxy-pyrido[2,3-d]pyrimidine derivatives” (Godecke Aktiengesellschaft, priority 1984, dated 1987).

Assay [1] concerns arteria coronaria vessel rings. Put plainly: Inhibition of K^+ depolarization contraction of isolated vessel rings (a. coronaria) in the organ bath. The assay is classed as cell-based. The note with it: rabbit a. coronaria rings, mean diameter 0.5-1.0 mm, potassium depolarization in Tyrode's solution, read-out: Concentration (IC50) effecting a semimaximal inhibition of the K^+ -depolarization contraction of vessel rings, a. coronaria. From the text:
(§1) Of rabbits (vessel ring segments of arteria basilaris and a. coronaria are mounted in an organ bath in a way to allow the measurement of isometric contractions. Contractile activity is elicited by a potassium depolarization in Tyrode's solution. This experimental set-up is a well-known standard model for the identification of substances blocking the calcium channels opened during the potassium depolarization (Fleckenstein, Calcium Antagonism in Heart and Smooth Muscle, J. Wiley & Sons, 1983).
(§2) Concentrations (IC50, mol/l) of compounds effecting a semimaxi-
(§3) mal inhibition of the K^+ -depolarization contraction of vessel
(§4) in the organ bath. A. bas. = arteria basilaris, a cor. = arteria
(§5) coronaria of the rabbit; mean diameter 0.5-1.0 mm.

Assay [2] has as its system arteria basilaris vessel rings. Put plainly: Inhibition of K^+ depolarization contraction of isolated vessel rings (a. basilaris) in the organ bath. The format is cell-based. To be noted: rabbit a. basilaris rings, mean diameter 0.5-1.0 mm, potassium depolarization in Tyrode's solution, read-out: Concentration (IC50) effecting a semimaximal inhibition of the K^+ -depolarization contraction of vessel rings, a. basilaris.
Text: as §1, §2, §3, §4, §5

As to `COCCOC(=O)C1=C(C)Nc2ncnc(OC(C)C)c2C1c1cccc([N+](=O)[O-])c1` (racemic) [Example 1b, (±)-5,8-Dihydro-4-isopropoxy-7-methyl-5-(3-nitrophenyl)pyrido[2,3-d]pyrimidine-6-carboxylic acid(2-methoxy)ethyl ester], the IC50 was found to be 34 nM in assay [1] and 39 nM in assay [2].
Turning to `COC(=O)C1=C(C)Nc2ncnc(OC(C)C)c2C1c1ccccc1C(F)(F)F` (racemic) [Example 1c, (±)-5,8-Dihydro-4-isopropoxy-7-methyl-5-(2-trifluromethylphenyl)pyrido[2,3-d]pyrimidine-6-carboxylic acid methyl ester], the values for the IC50 in assay [1] and in assay [2] were 45 nM and 40 nM, respectively.
Consider `CC1=C(C(=O)OC(C)C)C(c2cccc([N+](=O)[O-])c2)c2c(ncnc2OC(C)C)N1` (racemic) [Example 1d, (±)-5,8)Dihydro-4-isopropoxy-7-methyl-5-(3-nitrophenyl)pyrido[2,3-d]pyrimidine-6-carboxylic acid isopropyl ester], for which the IC50 in assay [1] worked out at 160 nM; in assay [2] it was 33 nM.
As to `CCOC(=O)C1=C(N)Nc2ncnc(OC(C)C)c2C1c1ccccc1OC` (racemic) [Example 1e, (±)-7-Amino-5,8-dihydro-4-isopropoxy-5-(2-methoxyphenyl)pyrido[2,3-d]pyrimidine-6-carboxylic acid ethyl ester], the IC50 in assay [1] is 73 nM; in assay [2], 2800 nM.
Regarding `CCOC(=O)C1=C(C)Nc2ncnc(OC(C)C)c2C1c1ccccc1C(F)(F)F` (racemic) [Example 1f, (±)-5,8-Dihydro-4-isopropoxy-7-methyl-5-(2-trifluoromethylphenyl)pyrido[2,3-d]pyrimidine-6-carboxylic acid ethyl ester], the values for the IC50 in assay [1] and in assay [2] were 34 nM and 38 nM, respectively.
`COC(=O)C1=C(C)Nc2ncnc(OC(C)C)c2C1c1cccc([N+](=O)[O-])c1` (racemic) [Example 1g, (±)-5,8-Dihydro-4-isopropoxy-7-methyl-5-(3-nitrophenyl)pyrido[2,3-d]pyrimidine-6-carboxylic acid methyl ester]: the IC50 in assay [1] is 230 nM; in assay [2] it was 28 nM.
Take `COc1ncnc2c1C(c1cccc([N+](=O)[O-])c1)C(C(=O)OC(C)C)=C(C)N2` (racemic) [Example 2, (±)-5,8-Dihydro-4-methoxy-7-methyl-5-(3-nitrophenyl)pyrido[2,3-d]pyrimidine-6-carboxylic acid isopropyl ester]: the values for the IC50 in assay [1] and in assay [2] were 140 nM and 2.5 nM, respectively.
